From paper PMC8692984 (Frontiers in Pharmacology, 2021)
Several values for one entry are separate records, joined by “and”; a condition that tells them apart may be missing. Identical values can stand only once. Bridge positions count the residues as written; N and C are the ends. Peptide text beside a SMILES is read from it.

What was measured:
α7 nAChRs [1] = target: T1, α7 nAChRs (Homo sapiens, UniProt P36544)
Ls-AChBP = Ls-AChBP (Lymnaea stagnalis, UniProt P58154); assay: biochemical; conditions: SEM
α7 nAChRs [2] = target: T1, α7 nAChRs; remark: listed apart in the source

T1 sequence (P36544 23-502): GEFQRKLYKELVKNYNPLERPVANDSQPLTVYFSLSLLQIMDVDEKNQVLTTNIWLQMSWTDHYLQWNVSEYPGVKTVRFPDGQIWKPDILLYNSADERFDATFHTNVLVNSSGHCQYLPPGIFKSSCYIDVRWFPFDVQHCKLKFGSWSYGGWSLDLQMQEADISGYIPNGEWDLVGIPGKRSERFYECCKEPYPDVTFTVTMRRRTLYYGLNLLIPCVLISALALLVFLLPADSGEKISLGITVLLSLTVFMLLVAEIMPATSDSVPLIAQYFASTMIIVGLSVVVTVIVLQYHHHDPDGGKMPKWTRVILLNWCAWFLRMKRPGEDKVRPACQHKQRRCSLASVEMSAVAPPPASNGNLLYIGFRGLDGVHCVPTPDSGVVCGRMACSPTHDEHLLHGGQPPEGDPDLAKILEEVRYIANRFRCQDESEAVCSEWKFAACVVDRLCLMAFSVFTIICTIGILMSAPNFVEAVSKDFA
Ls-AChBP, sequence (P58154 20-229 limits assumed): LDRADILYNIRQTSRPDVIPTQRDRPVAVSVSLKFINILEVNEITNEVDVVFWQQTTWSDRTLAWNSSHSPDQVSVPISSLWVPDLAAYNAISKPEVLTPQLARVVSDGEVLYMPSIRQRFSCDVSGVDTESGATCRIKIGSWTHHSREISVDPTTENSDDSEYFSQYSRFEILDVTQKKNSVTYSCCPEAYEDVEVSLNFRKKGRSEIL

SMILES | IC50 (Ls-AChBP) [µM] | extent of inhibition of α7 nAChR responses to choline (α7 nAChRs [1]) [%] | residual response at TQS-α7 nAChRs (α7 nAChRs [2]) [%] | other results
CC[C@H](C)[C@@H]1NC(=O)[C@H](Cc2c[nH]cn2)NC(=O)[C@@H]2CCCN2C(=O)[C@H](CC(N)=O)NC(=O)[C@H](CC(N)=O)NC(=O)[C@H]([C@@H](C)O)NC(=O)[C@H](CC(N)=O)NC(=O)[C@@H]2CSSC[C@H](NC(=O)CN)C(=O)N[C@@H](CSSC[C@@H](C(=O)NCC(N)=O)NC1=O)C(=O)N[C@@H](CO)C(=O)N[C@@H](Cc1c[nH]cn1)C(=O)N1CCC[C@H]1C(=O)N[C@@H](C)C(=O)N2 [[V10T]OmIA] (H-GCCSHPACNTNNPHICG-NH2; disulfide 2-8, 3-16) | 1 ± 0.05 |  |  | residual response at PNU120596-α7 nAChRs (α7 nAChRs [1]): 60%
CC[C@H](C)[C@@H]1NC(=O)[C@H](Cc2c[nH]cn2)NC(=O)[C@@H]2CCCN2C(=O)[C@H](CC(N)=O)NC(=O)[C@H](CC(N)=O)NC(=O)[C@H](CC(C)C)NC(=O)[C@H](CC(N)=O)NC(=O)[C@@H]2CSSC[C@H](NC(=O)CN)C(=O)N[C@@H](CSSC[C@@H](C(=O)NCC(N)=O)NC1=O)C(=O)N[C@@H](CO)C(=O)N[C@@H](Cc1c[nH]cn1)C(=O)N1CCC[C@H]1C(=O)N[C@@H](C)C(=O)N2 [[V10L]OmIA] (H-GCCSHPACNLNNPHICG-NH2; disulfide 2-8, 3-16) | 0.68 ± 0.13 |  |  | increase of OmIA IC50 at TQS-α7 nAChRs (α7 nAChRs [2]): 10 fold
CC[C@H](C)[C@@H]1NC(=O)[C@H](Cc2c[nH]cn2)NC(=O)[C@@H]2CCCN2C(=O)[C@H](CC(N)=O)NC(=O)[C@H](CC(N)=O)NC(=O)[C@H](C)NC(=O)[C@H](CC(N)=O)NC(=O)[C@@H]2CSSC[C@H](NC(=O)CN)C(=O)N[C@@H](CSSC[C@@H](C(=O)NCC(N)=O)NC1=O)C(=O)N[C@@H](CO)C(=O)N[C@@H](Cc1c[nH]cn1)C(=O)N1CCC[C@H]1C(=O)N[C@@H](C)C(=O)N2 [[V10A]OmIA] (H-GCCSHPACNANNPHICG-NH2; disulfide 2-8, 3-16) |  |  |  | Choline EC50 ± SEM at PNU120596-α7 nAChRs in the presence of peptide (α7 nAChRs [1]): 7 ± 1.20 and 8 ± 0.47 and 11 ± 1.20; mode of antagonism at PNU120596-α7 nAChRs (α7 nAChRs [1]): fully insurmountable antagonism; Fraction 2 ± SEM at PNU120596-modified α7 nAChRs (α7 nAChRs [1]; SEM): 0.58 ± 0.04 and 0.57 ± 0.11 and 0.37 ± 0.04; Choline EC50 ± SEM at TQS-α7 nAChRs in the presence of peptide (α7 nAChRs [2]): 3 ± 0.20 and 4 ± 1.00 and 5 ± 0.48
CC[C@H](C)[C@@H]1NC(=O)[C@H](Cc2c[nH]cn2)NC(=O)[C@@H]2CCCN2C(=O)[C@H](CC(N)=O)NC(=O)[C@H](CC(N)=O)NC(=O)[C@H](C(C)C)NC(=O)[C@H](Cc2c[nH]cn2)NC(=O)[C@@H]2CSSC[C@H](NC(=O)CN)C(=O)N[C@@H](CSSC[C@@H](C(=O)NCC(N)=O)NC1=O)C(=O)N[C@@H](CO)C(=O)N[C@@H](Cc1c[nH]cn1)C(=O)N1CCC[C@H]1C(=O)N[C@@H](C)C(=O)N2 [[N9H]OmIA] (H-GCCSHPACHVNNPHICG-NH2; disulfide 2-8, 3-16) | 0.73 ± 0.05 | ~50 | ~15 | 
CC[C@H](C)[C@@H]1NC(=O)[C@H](Cc2c[nH]cn2)NC(=O)[C@@H]2CCCN2C(=O)[C@H](CC(N)=O)NC(=O)[C@H](CC(N)=O)NC(=O)[C@H](C(C)C)NC(=O)[C@H](CC(N)=O)NC(=O)[C@@H]2CSSC[C@H](NC(=O)CN)C(=O)N[C@@H](CSSC[C@@H](C(=O)NCC(N)=O)NC1=O)C(=O)N[C@@H](CO)C(=O)N[C@@H](Cc1c[nH]cn1)C(=O)N1CCC[C@H]1C(=O)N[C@@H](C)C(=O)N2 [OmIA] (H-GCCSHPACNVNNPHICG-NH2; disulfide 2-8, 3-16) |  | ~50 | ~15 | 
CC[C@H](C)[C@@H]1NC(=O)[C@H](Cc2cnc[nH]2)NC(=O)[C@@H]2CCCN2C(=O)[C@H](CC(N)=O)NC(=O)[C@H](CC(N)=O)NC(=O)[C@H](C(C)C)NC(=O)[C@H](CC(N)=O)NC(=O)[C@@H]2CSSC[C@H](NC(=O)CN)C(=O)N[C@@H](CSSC[C@@H](C(=O)NCC(N)=O)NC1=O)C(=O)N[C@@H](CO)C(=O)N[C@@H](Cc1cnc[nH]1)C(=O)N1CCC[C@H]1C(=O)N[C@@H](C)C(=O)N2 [OmIA] (H-GCCSHPACNVNNPHICG-NH2; disulfide 2-8, 3-16) | 0.28 ± 0.07 |  |  | 
